≈ marks a conversion by molar mass, not a printed value.
Legend:
Streptococcus oralis = assay: Antibacterial activity against Streptococcus oralis PB182 after 24 hrs by agar diffusion method; format: functional; settings: PB182, 24 h
Streptococcus mutans [1] = assay: Antibacterial activity against Streptococcus mutans UA159 assessed as total biofilm adherence inhibition after 18 hrs by microtechnique; format: functional
Staphylococcus aureus = assay: Antibacterial activity against Staphylococcus aureus 25923 after 24 hrs by agar diffusion method; format: functional; settings: Staphylococcus aureus, 25923, 24 h
Actinomyces naeslundii = assay: Antimicrobial activity against Actinomyces naeslundii 12104 after 24 hrs by agar diffusion method; format: functional; settings: Actinomyces naeslundii, 12104, 24 h
HeLa = assay: Cytotoxicity against human HeLa cells after 24 to 48 hrs by MTT assay; format: functional, cell-based
Streptococcus mutans [2] = assay: Antibacterial activity against Streptococcus mutans UA159 after 24 hrs by agar diffusion method; format: functional; settings: UA159, 24 h
Streptococcus sobrinus [3] = assay: Antibacterial activity against Streptococcus sobrinus 6715 assessed as total biofilm adherence inhibition after 18 hrs by microtechnique; format: functional
Streptococcus sobrinus [4] = assay: Antibacterial activity against Streptococcus sobrinus 6715 after 24 hrs by agar diffusion method; format: functional; settings: Streptococcus sobrinus, 6715, 24 h
Streptococcus gordonii = assay: Antibacterial activity against Streptococcus gordonii 10558 after 24 hrs by agar diffusion method; format: functional; settings: Streptococcus gordonii, 10558, 24 h

| MIC (Streptococcus oralis) | MIC (Staphylococcus aureus) | MIC (Actinomyces naeslundii) | MIC (Streptococcus mutans [2]) | MIC (Streptococcus sobrinus [4]) | MIC (Streptococcus gordonii) | Compound | MBC (Streptococcus oralis) | Activity (Streptococcus mutans [1]) | MBC (Staphylococcus aureus) | MBC (Actinomyces naeslundii) | IC50 (HeLa) | MBC (Streptococcus mutans [2]) | Activity (Streptococcus sobrinus [3]) | MBC (Streptococcus sobrinus [4]) | MBC (Streptococcus gordonii) |
| --- | --- | --- | --- | --- | --- | --- | --- | --- | --- | --- | --- | --- | --- | --- | --- |
| 1.65 µg/mL (≈ 3.18 µM) | 0.73 µg/mL (≈ 1.41 µM) | 1.65 µg/mL (≈ 3.18 µM) | 3.3 µg/mL (≈ 6.36 µM) | 3.3 µg/mL (≈ 6.36 µM) | 1.65 µg/mL (≈ 3.18 µM) | CC(C)=CC[C@H]1C[C@@]2(CC=C(C)C)C(=O)[C@](C(=O)c3ccccc3)(C(=O)C3=C2O[C@H](C(C)(C)O)C3)C1(C)C [HYPERIBONE A] | 26 µg/mL (≈ 50.1 µM) | 1.65 µg/mL | 5.85 µg/mL (≈ 11.3 µM) | 6.6 µg/mL (≈ 12.7 µM) | 176 nM | 53 µg/mL (≈ 102 µM) | 1.65 µg/mL | 53 µg/mL (≈ 102 µM) | 26 µg/mL (≈ 50.1 µM) |
| – | – | – | – | – | – | CC(C)=CCC1=C(O)[C@@]2(C(=O)c3ccccc3)C(=O)[C@](CC=C(C)C)(C[C@H](CC=C(C)C)C2(C)C)C1=O | – | – | – | – | 3300 nM | – | – | – | – |

From ChEMBL document CHEMBL1155244, “Identification of a bioactive compound isolated from Brazilian propolis type 6” (Bioorg Med Chem, 2009)
